What was measured:
Chung model rats = assay: Chung rat nerve ligation model, tactile allodynia reversal (Von Frey); assay type: in vivo; details: for allodynia reversal, single oral dose: Compound 3 30 μg/kg, Compound 11 0.1 mg/kg, Compound 4 0.3 mg/kg; for Peak allodynia reversal (dose): intraperitoneal injection, dose (3-300 μg/kg); for allodynia reversal: osmotic minipump 0.1 mg/kg/hour for five days; for persistence of analgesic effects after treatment: subcutaneous osmotic minipump 0.1 mg/kg/hour, seven days; for maintenance of the analgesic effect after minipump removal: osmotic minipump for five days, four week test period
Description: The Chung rat nerve ligation model is a well accepted model of peripheral neuropathic pain. In the Chung model, partial ligation of left spinal nerves L-5 and L-6 produces a long-lasting hypersensitivity to light touch on the affected left foot. The hypersensitivity is similar to pain experienced by humans with the neuropathic condition of causalgia (Kim and Chung, Pain 50:355-363 (1992)).
Chung rat surgeries of about 20 minutes duration were performed essentially as follows. Male Sprague-Dawley rats weighing 100 to 120 grams were anesthetized with isofluorane. After shaving and preparing the surgical site with betadine, an incision was made from thoracic vertebra XIII down toward the sacrum, and muscle separated from spinal vertebra (left side) at the L4-S2 levels. The L6 vertebra were located, and the transverse process carefully removed with a small rongeur to visually identify the L4-L6 spinal nerves. L5 and L6 spinal nerves were isolated and tightly ligated with 6-0 silk thread; the wound was sutured after complete hemostasis was confirmed. A small amount of antibiotic ointment was applied to the incised area before transferring the animals to a plastic recovery cage under a regulated heat-temperature lamp. Animals were not treated with any topical or local anesthetics post-operatively.
Assessment of pain in Chung model rats was performed by applying a light tactile stimulus (Von Frey hair) to the affected surgical paw as follows. A 50% pain threshold was established by applying the Von Frey hair in an up-and-down manner to the plantar surface of the surgical paw with just enough force to bend them. A positive response was recorded if the paw was withdrawn sharply. The 50% paw withdrawal threshold was determined using the method of Dixon et al., Ann. Rev. Pharmacol. Toxicol. 20:441-462 (1980). The post-drug threshold was compared to the pre-drug threshold, and the precent reversal of tactile sensitivity calculated based on a normal threshold of 15.1 grams. The results were expressed as % allodynia reversal, reflecting the percentage reversal of pain threshold relative to a normal rat (100%).
Chung surgeries were performed, and pain assessed as described above. Drugs administered via osmotic minipump were delivered as follows. ALZET (Cupertino, Calif.) minipumps (Model #1007D) were implanted subcutaneously on the rats' back between the shoulder blades. Pumps were filled with test solution prior to surgery, which was performed with aseptic procedures and sterilized surgical instruments. After anesthetization with isoflorane and midline incision between the shoulder blades through the muscle, a subcutaneous pocket was exposed. The minipump was inserted into the exposed pocket, before stapling the wounds closed and allowing animals to recover under a warming light.
ALZET osmotic minipumps (model 1007D) hold a total volume of 100 μl and delivered drug at the set rat of 0.5 μl per hour the indicated time period. Drugs were administered at the indicated rate, typically 100 μg/hr/kg, dissolved in 50% DMSO, with the concentration of drug in the pump varied depending on animal weight. […]

human α-2C (c4 gene) = target: T1, human α-2C (c4 gene) (Homo sapiens, UniProt P18825); assay: RSAT assay, α-2C receptor; assay type: cell-based; details: for EC50: NA = not active (EC50 ≧ 10,000); for Emax: in brackets under the RSAT activity, printed without % sign, read-out: % efficacy 2C
T1 construct: expressed in transfected cells; host or cells: NIH-3T3
T1 sequence (P18825 1-462): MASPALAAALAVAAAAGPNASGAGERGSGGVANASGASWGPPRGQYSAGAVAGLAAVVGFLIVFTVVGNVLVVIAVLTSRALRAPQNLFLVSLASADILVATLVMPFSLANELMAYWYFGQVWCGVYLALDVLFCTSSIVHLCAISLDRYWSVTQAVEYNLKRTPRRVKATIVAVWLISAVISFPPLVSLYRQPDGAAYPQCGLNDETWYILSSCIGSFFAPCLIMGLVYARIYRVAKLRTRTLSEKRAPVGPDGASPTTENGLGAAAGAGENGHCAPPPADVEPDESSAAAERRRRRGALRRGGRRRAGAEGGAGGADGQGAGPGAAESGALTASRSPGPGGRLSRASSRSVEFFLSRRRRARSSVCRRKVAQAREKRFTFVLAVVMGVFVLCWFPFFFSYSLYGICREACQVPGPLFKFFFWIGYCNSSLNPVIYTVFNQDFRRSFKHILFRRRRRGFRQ
From the text: Agonist and antagonist activity, including selectivity and specificity, can be characterized using any of a variety of routine assays, including, without limitation, Receptor Selection and Amplification Technology (RSAT) assays (Messier et al., Pharmacol. Toxicol. 76:308-11 (1995); Conklin et al., Nature 363:274-6 (1993)); cyclic AMP assays (Shimizu et al., J. Neurochem. 16:1609-1619 (1969)); and cytosensor microphysiometry assays (Neve et al., J. Biol. Chem. 267:25748-25753 (1992)). Such assays generally are performed using cells that naturally express only a single α-adrenergic receptor subtype, or using transfected cells expressing a single recombinant α-adrenergic receptor subtype. The adrenergic receptor can be a human receptor or homolog thereof having a similar pharmacology. As disclosed herein, RSAT assays were performed using cells transiently transfected with human α-2A (c10 gene); rat α-2B (RNG gene); human α-2C (c4 gene); bovine α-1A; hamster α-1B; and rat α-1D.
The RSAT assay measures receptor-mediated loss of contact inhibition resulting in selective proliferation of receptor-containing cells in a mixed population of confluent cells. The increase in cell number is assessed with an appropriate detectable marker gene such as β-galactosidase, if desired, in a high throughput or ultra high throughput assay format. Receptors that activate the G protein, Gq, elicit the proliferative response. α-adrenergic receptors, which normally couple to Gi, activate the RSAT response when coexpressed with a hybrid Gq protein containing a Gi receptor recognition domain, designated Gq/i5.
As an example, an RSAT assay can be performed essentially as follows. NIH-3T3 cells are plated at a density of 2×10^6 cells in 15 cm dishes and maintained in Dulbecco's modified Eagle's medium supplemented with 10% calf serum. One day later, cells are cotransfected by calcium phosphate precipitation with mammalian expression plasmids encoding p-SV-β-galactosidase (5-10 μg), receptor (1-2 μg) and G protein (1-2 μg). Carrier DNA, for example 40 μg salmon sperm DNA, also can be included to increase transfection efficiency. Fresh media is added on the following day; one to two days later, cells are harvested and frozen in 50 assay aliquots. Transfected cells are thawed, and 100 μl of cells added to 100 μl aliquots of compound to be tested, with various concentrations assayed in triplicate, for example, in 96-well plates. Incubation continues for 72 to 96 hours at 37°. After washing with phosphate-buffered saline, β-galactosidase activity is determined by adding 200 μl of chromogenic substrate (3.5 mM O-nitrophenyl-β-D-galactopyranoside/0.5% NP-40 in phosphate buffered saline), incubating overnight at 30°, and measuring optical density at 420 nm. The absorbancy is a measure of enzyme activity, which depends on cell number and reflects receptor-mediated cell proliferation. The EC50 and maximal effect (efficacy) of each drug at each receptor is determined.

SMILES | allodynia reversal, single oral dose (Chung model rats) | Peak allodynia reversal (dose) (Chung model rats) | allodynia reversal (Chung model rats) | analgesia, agonist given alone (Chung model rats; peripheral (intraperitoneal) administration, Chung rats, Compound 2 100 μg/kg, clonidine 100 μg/kg, Compound 3 1 to 1000 μg/kg) | time by which the analgesic effect was gone (Chung model rats; single oral dose) | time to analgesic effect (Chung model rats; single oral dose) | persistence of analgesic effects after treatment (Chung model rats) | EC50 (human α-2C (c4 gene)) [nM] | maintenance of the analgesic effect after minipump removal (Chung model rats) | Emax (human α-2C (c4 gene)) [%] | oral dose sufficient for an analgesic effect (Chung model rats; single oral dose) [mg/kg] | allodynia reversal and duration at 1 mg/kg oral (Chung model rats; single oral dose 1 mg/kg, compared with 0.3 mg/kg)
O=C1c2ccccc2CCC1Cc1c[nH]c(=S)[nH]1 (racemic) [Compound 3] | 70-100% | 81% +/− 10% | about 80% | significant analgesia without producing sedation | ≤ 2 h | less than 20 minutes | continued for over a month after treatment was concluded | > 2000 |  |  |  | 
S=c1[nH]cc(CC2CC=CC2)[nH]1 [Compound 11] | 60-90% |  | about 80% |  | ≤ 2 h |  |  | 247 | maintained at essentially the same level over the entire four week test period | 0.3 |  | 
O=c1[nH]cc(CC2CCc3cc(F)ccc32)[nH]1 (stereo not drawn) [Compound 4] | 60-80% | 80% +/− 6.5% | about 80% |  | essentially no pain relief was observed after four hours |  | continued for over a month after treatment was concluded | 202 | maintained at essentially the same level over the entire four week test period | 0.5 | 0.03 | the allodynia was reversed to a greater extent, and the pain relief was of longer duration

Reference: patent publication US7345065B2, “Methods and compositions for alleviating pain” (Allergan, Inc., priority 2002, dated 2008)
